# Reference: patent US11542254B2, “Methods and composition of 4-substituted benzoylpiperazine-1-substituted carbonyls as beta-catenin/B-cell lymphoma 9 inhibitors” (University of Utah Research Foundation, priority 2016, dated 2023)
# “Also recorded” adds a separate entry of the source. Counter-ions that a name gives are not always drawn. Like-named read-outs stand apart in the source and are kept apart here.
# Key:
# β-catenin/BCL9 PPI = β-catenin/BCL9 PPI (Homo sapiens (Human), UniProt P35222); assay: AlphaScreen competitive inhibition assay, wild-type β-catenin/BCL9 PPI; assay type: binding; conditions: wild-type β-catenin/BCL9 PPI, AlphaScreen competitive inhibition, mean ± SD (n=3)
# Sequence of β-catenin/BCL9 PPI (P35222 138-686): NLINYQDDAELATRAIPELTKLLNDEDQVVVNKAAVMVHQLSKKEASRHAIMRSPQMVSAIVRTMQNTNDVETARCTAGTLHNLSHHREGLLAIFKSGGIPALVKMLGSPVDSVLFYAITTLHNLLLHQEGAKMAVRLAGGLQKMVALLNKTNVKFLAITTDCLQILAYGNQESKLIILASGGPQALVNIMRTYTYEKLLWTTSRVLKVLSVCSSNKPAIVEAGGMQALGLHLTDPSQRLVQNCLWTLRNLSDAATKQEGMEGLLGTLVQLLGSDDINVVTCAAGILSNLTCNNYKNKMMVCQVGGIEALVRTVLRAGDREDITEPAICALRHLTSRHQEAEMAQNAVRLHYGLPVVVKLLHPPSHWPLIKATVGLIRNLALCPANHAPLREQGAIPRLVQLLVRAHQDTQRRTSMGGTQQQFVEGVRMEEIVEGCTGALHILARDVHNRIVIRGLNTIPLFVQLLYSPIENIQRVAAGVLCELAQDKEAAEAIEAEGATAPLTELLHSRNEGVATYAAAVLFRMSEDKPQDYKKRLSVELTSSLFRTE
# Experimental: Cells were cultured in LB medium with 30 μg/mL kanamycin until the OD600 was approximately 0.8, and then protein expression was induced with 400 μM of IPTG at 20° C. overnight. Cells were lysed by sonication. […] Native non-denaturing gel electrophoresis was performed to confirm the homogeneity of the purified proteins. Thermal-shift assay was performed on an iCycler iQ Real Time Detection System (Bio-Rad) to monitor protein stability and detect protein aggregation. Protein unfolding was evaluated through measuring the fluorescence changes of fluorescent dye Sypro Orange when interacting with wild-type or mutant β-catenin proteins. A temperature increment of 1°/min was applied. […] All spectra were recorded at room temperature, and the baseline control containing all of the substances except protein. Sample were prepared at a concentration around 1-5 μM in a buffer of 10 mM potassium phosphate and 100 mM potassium fluoride at pH 7.0 to ensure that the transmission of light through the sample was not restricted. […] Proteins were aliquoted and stored at −80° C.
# 25. Alphascreen Competitive Inhibition Assays Using Wild-Type and Mutant β-Catenin Proteins
# HCT116 cells = assay: MTS cell viability assay, HCT116; assay type: cell-based; conditions: HCT116 colorectal cancer cells, MTS, 72 h, read-out: IC50 ± SD
# Experimental: (§1) 26. MTS Cell Viability Assay
# (§2) Colorectal cancer cell lines, SW480 and HCT116 were seeded in 96-well plates at 4×10^3 cells/well, maintained overnight at 37° C., and incubated with the tested compounds at various concentrations. Cell viability was monitored after 72 h using a freshly prepared mixture of 1 part phenazine methosulfate (PMS, Sigma) solution (0.92 mg/mL) and 19 parts 3-(4,5-dimethylthiazol-2-yl)-5-(3-carboxymethoxyphenyl)-2-(4-sulfophenyl)-2H-tetrazolium (MTs, Promega) solution (2 mg/mL). Cells were incubated in 10 μL of this solution at 37° C. for 3 h, and A490 was measured. […] Experiments were performed in triplicate.
# SW480 cells = assay: MTS cell viability assay, SW480; assay type: cell-based; conditions: SW480 colorectal cancer cells, MTS, 72 h, read-out: IC50 ± SD
# Experimental: as §1, §2
# [1] = system: pcDNA3.1-β-catenin transfected HEK293 cells, TOPFlash (wild-type Tcf binding sites); assay: TOPFlash Wnt-responsive luciferase reporter assay; assay type: cell-based; conditions: 24 h treatment, hydrochloride
# Experimental: 27. Cell Transfection and Luciferase Assay
# FuGENE 6 (E2962, Promega) in a 96-well plate format was used for the transfection of HEK293 and SW480 cells according to the manufacturer's instructions. HEK293 cells were co-transfected with 45 ng of the TOPFlash (with three wild-type Tcf binding sites) or FOPFlash (with three mutant Tcf binding sites) reporter gene, 135 ng pcDNA3.1-β-catenin and 20 ng pCMV-RL normalization reporter gene. SW480 cells were co-transfected with 60 ng of the TOPFlash or FOPFlash reporter gene and 40 ng pCMV-RL normalization reporter. Cells were cultured at 37° C. for 24 h, and different concentrations of inhibitors were then added. After 24 h, the luciferase reporter activity was measured using the Dual-Glo system (E2940, Promega). Normalized luciferase activity in response to the treatment with the inhibitors was compared with that obtained from the cells treated with DMSO. Experiments were performed in triplicate.
Ki (β-catenin/BCL9 PPI) [µM],"IC50 (HCT116 cells; Homo sapiens, HCT-116) [µM]",IC50 (SW480 cells; Homo sapiens) [µM],SMILES,TOPFlash luciferase activity [1],IC50 (HCT116 cells) [µM],IC50 (SW480 cells) [µM]
19,120 ± 16,86 ± 8.8,"O=C(c1cc(F)cc(N2CCNCC2)c1)N1CCN(C(=O)c2ccc(O[C@H]3CCNC3)c(-c3ccc(F)cc3)c2)CC1 [Compound 2, (S)-(4-(3-fluoro-5-(piperazin-1-yl)benzoyl)piperazin-1-yl) (4′-fluoro-6-(pyrrolidin-3-yloxy)-[1,1′-biphenyl]-3-yl) methanone hydrochloride]",,,
,,,"CC1CCC(c2cc(C(=O)N3CCN(C(=O)c4cc(F)cc(N5CCNCC5)c4)CC3)ccc2O[C@H]2CCNC2)CC1.Cl (stereo partly drawn) [Compound 12, (S)-(4-(3-fluoro-5-(piperazin-1-yl)benzoyl)piperazin-1-yl) (3-(4-methylcyclohexyl)-4-(pyrrolidin-3-yloxy)phenyl) methanone hydrochloride]",suppressed the TOPFlash (with wild-type Tcf binding sites) luciferase activity in a dose-dependent manner; also recorded: suppress the transactivation of canonical Wnt signaling,39 ± 5.4,44 ± 6.5
